Test results published in publication PMC9866940 (Viruses, 2022).
Structures can show the parent of a compound that is named as a salt. Where two headings read alike, the source gives them in different places.

What was measured:
in vitro [1] = conditions: human
JUNV MG = assay: microbe, parasite or virus in culture; assay type: cell-based, Junin virus (JUNV)
in vitro [2] = conditions: human; remark: listed apart in the source
JUNV (Candid #1 strain) = assay: microbe, parasite or virus in culture; assay type: cell-based, Junin virus (JUNV)
LCMV (rLCMV.Arm) = assay: microbe, parasite or virus in culture; assay type: cell-based, lymphocytic choriomeningitis virus (LCMV)
in vitro [3] = conditions: human; remark: listed apart in the source
LASV MG = assay: microbe, parasite or virus in culture; assay type: cell-based, Lassa virus (LASV); conditions: for inhibition of LASV MG activity (rescreening): 5 µM; for inhibition at 5 µM: Huh-7, read-out: inhibition of LASV MG activity (rescreening)
in vitro [4] = conditions: human; remark: listed apart in the source
A549 cells [5] = system: A549 cells
Huh-7 cells = conditions: 5 µM
A549 cells [6] = system: A549 cells; remark: listed apart in the source
LCMV MG = assay type: cell-based, lymphocytic choriomeningitis virus (LCMV); conditions: 5 µM
[7] = Mammarenavirus juninense, Huh-7
[8] = Mammarenavirus juninense, A549, 48 h
[9] = Mammarenavirus choriomeningitidis, A549, 24 h
[10] = Mammarenavirus lassaense, Huh-7

SMILES	IC50 (JUNV MG; [7])	IC50 (JUNV (Candid #1 strain); [8])	IC50 (LCMV (rLCMV.Arm); [9])	IC50 (LASV MG; [10])	CC50 (in vitro [4])	IC50 (JUNV MG; read-out: IC50)	CC50 (A549 cells [5])	IC50 (JUNV (Candid #1 strain); read-out: IC50)	CC50 (A549 cells [6])	IC50 (LCMV (rLCMV.Arm); read-out: IC50)	IC50 (LASV MG; read-out: IC50)	other results
NC(=O)c1ncn([C@@H]2O[C@H](CO)[C@@H](O)[C@H]2O)n1 [ribavirin, Ribavirin]	38.2 µM	45.4 µM	20.2 µM	15.4 µM	≥ 100 µM							CC50 (in vitro [1]; CC50): ≥ 200 µM; CC50 (in vitro [2]): ≥ 200 µM; CC50 (in vitro [3]): ≥ 200 µM
CC(=O)[C@]1(O)Cc2c(O)c3c(c(O)c2[C@@H](O[C@H]2C[C@H](N)[C@H](O)[C@H](C)O2)C1)C(=O)c1ccccc1C3=O [idarubicin hydrochloride]	0.12 µM	2.56 µM	0.59 µM	0.06 µM	0.79 µM							
CN(C)CCN1C(=O)c2cccc3cc(N)cc(c23)C1=O [amonafide]	2.9 µM	5.75 µM	10 µM	2.89 µM	≥ 40 µM							
NCCNc1ccc(NCCN)c2c1C(=O)c1ccncc1C2=O.O=C(O)/C=C\C(=O)O.O=C(O)/C=C\C(=O)O [pixantrone maleate]						1.81 µM	≥ 40 µM	3.66 µM	30.3 µM	4.75 µM	1.01 µM	cell viability (rescreening) (Huh-7 cells): > 70%; inhibition of LASV MG activity (rescreening) (LASV MG): at least 90%
Cc1c2ccncc2c(C)c2c1[nH]c1ccccc12.Cl [ellipticine hydrochloride]						0.76 µM	≥ 20 µM	1.73 µM	32.5 µM	1.5 µM	0.76 µM	inhibition of LCMV MG activity (LCMV MG): 95%
CN[C@H]1CN(c2ccc3c(=O)c(C(=O)O)cn(-c4nccs4)c3n2)C[C@@H]1OC [voreloxin (SNS 595) hydrochloride]						1.15 µM	≥ 40 µM	5.23 µM	13.3 µM	8.5 µM	1.82 µM	
Nc1ccc2cc3ccc(N)cc3nc2c1 [proflavine]	1.36 µM	2.45 µM		1.04 µM								viability at 5 µM (in vitro [1]): > 70%; inhibition at 5 µM (LASV MG; Mammarenavirus lassaense): ≥ 90%
COc1c(C)c2c(c(O)c1C/C=C(\C)CCC(=O)O)C(=O)OC2 [MPA, mycophenolic acid]	0.42 µM	0.97 µM		0.37 µM								
CCN(CC)CCCC(C)Nc1c2ccc(Cl)cc2nc2ccc(OC)cc12 (stereo not shown) [quinacrine dihydrochloride]	1.51 µM	7.33 µM		1.67 µM								viability at 5 µM (in vitro [1]): > 70%; inhibition at 5 µM (LASV MG; Mammarenavirus lassaense): ≥ 90%
CCN(CC)CCCC(C)Nc1c2ccc(Cl)cc2nc2ccc(OC)cc12 (stereo not shown) [QDD, quinacrine dihydrochloride dihydrate]												IC50 (JUNV MG): 1.46 µM; IC50 (JUNV (Candid #1 strain)): 4.66 µM; cell viability (rescreening) (Huh-7 cells; human): > 70%; CC50 (A549 cells [6]; human): 27.9 µM; IC50 (LASV MG): 1.28 µM; inhibition of LASV MG activity (rescreening) (LASV MG): at least 90%
